How the values were obtained:
Candida albicans = assay: Candida albicans-induced colitis model; assay type: in vivo, Balb/C female mice; details: after 9 days; 150 mg/kg, curative
Protocol: The inventors have selected a group of Balb/C female mice under estradiol (2.5 mg/kg; 1 injection every 3 days, for 12 days) to develop a Candida albicans-induced colitis model.
The prevention treatment started during estradiol administration, whereas the curative treatments started 2 days after Candida inoculation. The mice were sacrificed 14 days after the inoculation.

[1] = system: 2,4,6-trinitrobenzene sulfonic acid (TNBS)-induced colitis; assay: TNBS-induced colitis in rats; assay type: in vivo, rats (Sprague Dauwley)
Protocol: The inventors have developed a model based on 2,4,6-trinitrobenzene sulfonic acid (TNBS)-induced colitis in rats (Sprague Dauwley); 80 mg/kg. Colorectal distension is measured 14 days prior to the TNBS induction, as well as 21, 35 and 49 days after the TNBS induction.
The bacteria B. breve and La have been formulated in sticks for ingestion; the stability having been validated.

HT-29 = assay: Toxicity test CCK-8 on HT-29 cells under LPS; details: inflammatory conditions, LPS 10 ng/ml
Description: (§1) A cellular model with HT-29 and Caco-2 cells has been established.

Caco-2 cells = assay: Toxicity test CCK-8 on Caco-2 cells; details: inflammatory conditions, LPS 1 mg/ml
Description: as §1

ileo-cecal lesions = assay: IBD model: ileo-cecal resection in transgenic HLA-B27 rats; assay type: in vivo; details: 6 weeks after resection; treatment from week 8
Protocol: Transgenic HLA-B27 rats have been selected by the inventors as a model for ileo-cecal lesions in Humans (for instance common in Crohn's disease).
Twelve weeks-old rats (40, in five pools) are treated for the resection of distal ileum with proximal colon and the inflammation level was evaluated 6 weeks thereafter.

## OC(Cn1cncn1)(Cn1cncn1)c1ccc(F)cc1F [Fluconazole]
Candida albicans
  mice remaining infected: no mice remaining infected

## Oc1cc(O)cc(O)c1 [Spasfon, Phloroglucinol]
[1]; TNBS condition: 2.25
  macroscopic evaluation (Wallace scoring): 1.56
[1]; TNBS+vehicle: 2.00
  histological analysis of the inflammation (Ameho): 1.56
[1]; also with Vitamin D
  pain threshold: did not increase the pain threshold

## C=C1CC[C@H](O)C/C1=C/C=C1\CCC[C@]2(C)[C@@H]([C@H](C)CCCC(C)C)CC[C@@H]12 [Vitamin D, cholecalciferol (Vitamin D3)]
HT-29
  toxicity (CCK-8): no toxicity
Caco-2 cells
  toxicity (CCK-8): no toxicity

## Nc1ccc(O)c(C(=O)O)c1 [pentasa]
ileo-cecal lesions
  post-operative relapses: markedly reduced

Reference: patent publication US20260224609A1, “TREATMENT OF GUT INFLAMMATORY DISEASES” (priority 2023, published 2026)
